This is an account of results in paper PMC467105, “A comprehensive investigation of the anion inhibition profile of a β-carbonic anhydrase from Acinetobacter baumannii for crafting innovative antimicrobial treatments” (Journal of Enzyme Inhibition and Medicinal Chemistry, 2024).

Like-named read-outs stand apart in the source and are kept apart here.

The target of experiment [1] is β-AbauCA (Acinetobacter baumannii β-CA, CanB) (Acinetobacter baumannii, UniProt A0A7U3Y636). In words: biochemical. Format: biochemical.
Chain of UniProt A0A7U3Y636 (A0A7U3Y636 1-204): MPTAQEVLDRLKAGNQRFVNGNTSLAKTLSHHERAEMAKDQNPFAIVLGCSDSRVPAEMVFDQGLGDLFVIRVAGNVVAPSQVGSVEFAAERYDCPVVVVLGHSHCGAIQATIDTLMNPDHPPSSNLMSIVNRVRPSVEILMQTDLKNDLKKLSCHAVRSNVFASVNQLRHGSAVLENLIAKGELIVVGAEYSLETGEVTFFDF
Experiment [2] addresses PgiCAβ (Porphyromonas gingivalis β-CA). Also on record: method as in PMID 24146373. The note with it: cited from earlier work.
[3] abbreviates: CO2 hydrase, stopped-flow assay.

By Ki is commonly meant the dissociation constant of the complex between target and ligand, obtained from inhibition or displacement. `NS(N)(=O)=O` [Anion H2NSO2NH2, sulfamide]: the “affinity / Ki for β-AbauCA (in words)” value in experiment [1] is reported as “low millimolar affinity”. The Ki in experiment [1] (read-out: Ki β-AbauCA) was 2.1 mM; in experiment [2] (setting [3]) it was 0.078 mM.

In the case of `NS(=O)(=O)O` [Anion H2NSO3H, sulphamic acid], in experiment [1], the “affinity / Ki for β-AbauCA (in words)” value is reported as “submillimolar”. Besides, the Ki in experiment [1] (read-out: Ki β-AbauCA) is 0.63 mM; in experiment [2] (setting [3]) it was 0.06 mM.

In the case of `OB1OB2OB(O)OB(O1)O2` [B4O7^2-, tetraborate], the “affinity / Ki for β-AbauCA (in words)” value in experiment [1] is “low millimolar affinity”. Further, in experiment [1] (read-out: Ki β-AbauCA), the Ki worked out at 6.9 mM.

`F[B-](F)(F)F` [BF4^-, tetrafluoroborate]: the Ki in experiment [1] (read-out: Ki β-AbauCA) and in experiment [2] (setting [3]) was over 100 mM in each case.

Turning to `Br` [Br^-], the results for the Ki in experiment [1] (read-out: Ki β-AbauCA) and in experiment [2] (setting [3]) were over 100 mM and 15.9 mM, respectively.

Consider `O=S(=O)(O)C(F)(F)F` [CF3SO3^-, triflate], for which the inhibitory constant (Ki) in experiment [1] (read-out: Ki β-AbauCA) is over 100 mM; in experiment [2] (setting [3]) it was 8.5 mM.

`N#CO` [CNO^-, cyanate]: in experiment [1], the “affinity / Ki for β-AbauCA (in words)” value is “submillimolar”. Also, the Ki in experiment [1] (read-out: Ki β-AbauCA) was 0.79 mM; in experiment [2], 0.76 mM.

On to `O=C(O)O` [CO3^2-, carbonate], for which the Ki in experiment [1] (read-out: Ki β-AbauCA) is over 100 mM; in experiment [2], 3.7 mM.

With `S=C(S)S` [CS3^2-, trithiocarbonate], in experiment [1], the “affinity / Ki for β-AbauCA (in words)” value is on record as “low millimolar affinity”. For the same molecule, the Ki in experiment [1] (read-out: Ki β-AbauCA) is 3.3 mM; in experiment [2] (setting [3]), 4.3 mM.

With `[O-][Cl+3]([O-])([O-])O` [ClO4^-, perchlorate], the Ki in experiment [1] (read-out: Ki β-AbauCA) and in experiment [2] was over 100 mM in each case.

Consider `Cl` [Cl^-], for which the Ki is over 100 mM in experiment [1] (read-out: Ki β-AbauCA) and 7.5 mM in experiment [2] (setting [3]).

With `CCN(CC)C(=S)S` [Et2NCS2^-, diethyldithiocarbamate], in experiment [1], the affinity, expressed as Ki, was 8.2 mM and the “affinity / Ki for β-AbauCA (in words)” value is given as “low millimolar affinity”. Besides, the Ki in experiment [2] (setting [3]) is 0.23 mM.

In the case of `F` [F^-], the Ki in experiment [1] (read-out: Ki β-AbauCA) is over 100 mM; in experiment [2] (setting [3]), 7.8 mM.

With `O=C(O)O` [HCO3^-, bicarbonate], the Ki in experiment [2] was 7.3 mM.

Regarding `O=S(O)O` [HSO3^-, bisulphite], the Ki in experiment [1] (read-out: Ki β-AbauCA) was 59.1 mM; in experiment [2] (setting [3]) it was over 100 mM.

On to `S` [HS^-, hydrogensulfide], for which the “affinity / Ki for β-AbauCA (in words)” value in experiment [1] was “submillimolar”. Besides, the Ki in experiment [1] (read-out: Ki β-AbauCA) was 0.4 mM; in experiment [2] it was 4.5 mM.

Turning to `I` [I^-], the results for the Ki in experiment [1] (read-out: Ki β-AbauCA) and in experiment [2] (setting [3]) were over 100 mM and 21.4 mM, respectively.

For `[N-]=[N+]=[N-]` [N3^-, azide], the inhibition constant Ki in experiment [1] (read-out: Ki β-AbauCA) and in experiment [2] was over 100 mM in each case.

For the molecule `O=S(=O)(O)NS(=O)(=O)O` [NH(SO3)2^2-, iminodisulfonate], the “affinity / Ki for β-AbauCA (in words)” value in experiment [1] is reported as “submillimolar”. The Ki in experiment [1] (read-out: Ki β-AbauCA) was 0.93 mM; in experiment [2] (setting [3]) it was 2.1 mM.

Regarding `O=NO` [NO2^-, nitrite], the Ki in experiment [1] (read-out: Ki β-AbauCA) was 31.1 mM; in experiment [2], 7.8 mM.

`O=[N+]([O-])O` [NO3^-, nitrate]: the Ki in experiment [1] (read-out: Ki β-AbauCA) was 47.9 mM; in experiment [2] (setting [3]) it was over 100 mM.

Regarding `O=P(O)(O)OP(=O)(O)O` [P2O7^4-, pyrophosphate], the Ki in experiment [1] (read-out: Ki β-AbauCA) is 33.6 mM; in experiment [2] (setting [3]), 8.2 mM.

For the molecule `F[P-](F)(F)(F)(F)F` [PF6^-, hexafluorophosphate], the Ki in experiment [2] (setting [3]) is 8.2 mM.

On to `O=[As](O)(O)c1ccccc1` [Ph-AsO3H2, phenylarsonic acid], for which the Ki in experiment [2] was 0.076 mM.

With `OB(O)c1ccccc1` [Ph-B(OH)2, phenylboronic acid], in experiment [1], the Ki was found to be 0.29 mM and the “affinity / Ki for β-AbauCA (in words)” value is on record as “submillimolar”. The Ki in experiment [2] was 0.077 mM.

`[O]=[Re](=[O])(=[O])[O-]` [ReO4^-, perrhenate]: in experiment [1], the “affinity / Ki for β-AbauCA (in words)” value was “low millimolar affinity”. Besides, the Ki in experiment [1] (read-out: Ki β-AbauCA) was 8.1 mM.

`[O]=[Ru](=[O])(=[O])=[O]` [RuO4^-, perrhuthenate]: the “affinity / Ki for β-AbauCA (in words)” value in experiment [1] was “submillimolar”. For the same molecule, the Ki in experiment [1] (read-out: Ki β-AbauCA) came out at 0.96 mM.

Take `O=S(=O)(O)OOS(=O)(=O)O` [S2O8^2-, peroxydisulfate]: in experiment [1], the “affinity / Ki for β-AbauCA (in words)” value was “low millimolar affinity”. Also, the Ki is 3.8 mM in experiment [1] (read-out: Ki β-AbauCA) and 9.2 mM in experiment [2] (setting [3]).

Take `N#CS` [SCN^-, thiocyanate]: in experiment [1], the “affinity / Ki for β-AbauCA (in words)” value is on record as “low millimolar affinity”. The Ki in experiment [2] (setting [3]) was 1.9 mM.

On to `O=S(=O)(O)O` [SO4^2-, sulphate], for which the results for the Ki in experiment [1] (read-out: Ki β-AbauCA) and in experiment [2] were 79.3 mM and over 100 mM, respectively.

In the case of `N#C[SeH]` [SeCN^-, selenocyanide], in experiment [1], the “affinity / Ki for β-AbauCA (in words)” value is “submillimolar”. Also, the Ki in experiment [1] (read-out: Ki β-AbauCA) was 0.71 mM; in experiment [2], 2.4 mM.

For `O=[Se](=O)(O)O` [SeO4^2-, selenate], the Ki in experiment [1] (read-out: Ki β-AbauCA) is 18.4 mM; in experiment [2] it was 9.2 mM.

Regarding `[O]=[Sn]([OH])[OH]` [SnO3^2-, stannate], the “affinity / Ki for β-AbauCA (in words)” value in experiment [1] is recorded as “low millimolar affinity”. In experiment [1] (read-out: Ki β-AbauCA), the Ki was found to be 2.4 mM.

Turning to `O=[Te](=O)(O)O` [TeO4^2-, tellurate], the Ki in experiment [1] (read-out: Ki β-AbauCA) stood at 6 mM.

With `[O]=[V]([OH])([OH])[O][V](=[O])([OH])[OH]` [V2O7^4-, divanadate], in experiment [1], the “affinity / Ki for β-AbauCA (in words)” value was “low millimolar affinity”. Moreover, the Ki in experiment [1] (read-out: Ki β-AbauCA) is 5.8 mM.
